Experiment: Solubility in TFP (2,2,3,3-tetrafluoropropanol)
Assay type: physicochemical
From the text: Solubility: >2% in TFP (2,2,3,3-tetrafluoropropanol)

Solubility: > 2%
Structure (SMILES): CN(C)c1ccc(/C=C/C2=[N+](C)c3ccccc3C2(C)C)o1 [Example 1]

Reference: patent US20030054291A1, “Optical data storage medium containing a hemicyanine dye as the light-absorbing compound in the information layer” (priority 2001, published 2003)
